Experiments:
[1] = target: RAC-beta serine/threonine-protein kinase (Homo sapiens) (UniProt P31751); conditions: Compound concentration 1000.0 nM
[2] = target: Fibroblast growth factor receptor 1 (Homo sapiens) (UniProt P11362); conditions: Compound concentration 1000.0 nM
[3] = system: Tyrosine-protein kinase ABL1 (Homo sapiens), P00519 [H396P]; conditions: Compound concentration 1000.0 nM
[4] = target: Angiopoietin-1 receptor (Homo sapiens) (UniProt Q02763); conditions: Compound concentration 1000.0 nM
[5] = system: Epidermal growth factor receptor (Homo sapiens), P00533 [T790M]; conditions: Compound concentration 1000.0 nM
[6] = target: Macrophage-stimulating protein receptor (Homo sapiens) (UniProt Q04912); conditions: Compound concentration 1000.0 nM
[7] = target: Dual specificity protein kinase CLK4 (Homo sapiens) (UniProt Q9HAZ1); conditions: Compound concentration 1000.0 nM
[8] = target: Casein kinase I isoform alpha-like (Homo sapiens) (UniProt Q8N752); conditions: Compound concentration 1000.0 nM
[9] = system: Receptor-type tyrosine-protein kinase FLT3 (Homo sapiens), P36888 [D835H]; conditions: Compound concentration 1000.0 nM
[10] = target: Activin receptor type-2B (Homo sapiens) (UniProt Q13705); conditions: Compound concentration 1000.0 nM
[11] = target: Serine/threonine-protein kinase PAK 2 (Homo sapiens) (UniProt Q13177); conditions: Compound concentration 1000.0 nM
[12] = target: Proto-oncogene tyrosine-protein kinase Src (Homo sapiens) (UniProt P12931); conditions: Compound concentration 1000.0 nM
[13] = target: Muscarinic acetylcholine receptor M1 (Homo sapiens) (UniProt P11229); conditions: Compound concentration 10.0 uM
[14] = target: Beta-3 adrenergic receptor (Homo sapiens) (UniProt P13945); conditions: Compound concentration 10.0 uM
[15] = target: 1-phosphatidylinositol 3-phosphate 5-kinase (Homo sapiens) (UniProt Q9Y2I7); conditions: Compound concentration 1000.0 nM
[16] = target: Serine/threonine-protein kinase RIO1 (Homo sapiens) (UniProt Q9BRS2); conditions: Compound concentration 1000.0 nM
[17] = system: Tyrosine-protein kinase ABL1 (Homo sapiens), P00519 [F317I]; conditions: Compound concentration 1000.0 nM
[18] = target: Serine/threonine-protein kinase OSR1 (Homo sapiens) (UniProt O95747); conditions: Compound concentration 1000.0 nM
[19] = target: Tyrosine-protein kinase TXK (Homo sapiens) (UniProt P42681); conditions: Compound concentration 1000.0 nM
[20] = target: TGF-beta receptor type-2 (Homo sapiens) (UniProt P37173); conditions: Compound concentration 1000.0 nM
[21] = target: Activin receptor type-1B (Homo sapiens) (UniProt P36896); conditions: Compound concentration 1000.0 nM
[22] = target: Dual specificity protein kinase CLK1 (Homo sapiens) (UniProt P49759); conditions: Compound concentration 1000.0 nM
[23] = target: Serine/threonine-protein kinase PAK 4 (Homo sapiens) (UniProt O96013); conditions: Compound concentration 1000.0 nM
[24] = system: Tyrosine-protein kinase ABL1 (Homo sapiens), P00519 [F317L]; conditions: Compound concentration 1000.0 nM
[25] = target: Myosin light chain kinase, smooth muscle (Homo sapiens) (UniProt Q15746); conditions: Compound concentration 1000.0 nM
[26] = target: Mitogen-activated protein kinase 15 (Homo sapiens) (UniProt Q8TD08); conditions: Compound concentration 1000.0 nM
[27] = target: Serine/threonine-protein kinase/endoribonuclease IRE1 (Homo sapiens) (UniProt O75460); conditions: Compound concentration 1000.0 nM
[28] = target: MAP kinase-activated protein kinase 5 (Homo sapiens) (UniProt Q8IW41); conditions: Compound concentration 1000.0 nM
[29] = target: Mu-type opioid receptor (Homo sapiens) (UniProt P35372); conditions: Compound concentration 10.0 uM
[30] = target: Proto-oncogene tyrosine-protein kinase receptor Ret (Homo sapiens) (UniProt P07949); conditions: Compound concentration 1000.0 nM
[31] = target: Ribosomal protein S6 kinase alpha-2 (Homo sapiens) (UniProt Q15349); conditions: Compound concentration 1000.0 nM
[32] = target: Insulin receptor-related protein (Homo sapiens) (UniProt P14616); conditions: Compound concentration 1000.0 nM
[33] = target: Dual specificity mitogen-activated protein kinase kinase 6 (Homo sapiens) (UniProt P52564); conditions: Compound concentration 1000.0 nM
[34] = target: Mitogen-activated protein kinase kinase kinase 15 (Homo sapiens) (UniProt Q6ZN16); conditions: Compound concentration 1000.0 nM
[35] = target: Serine/threonine-protein kinase NIM1 (Homo sapiens) (UniProt Q8IY84); conditions: Compound concentration 1000.0 nM
[36] = target: Serine/threonine-protein kinase pim-2 (Homo sapiens) (UniProt Q9P1W9); conditions: Compound concentration 1000.0 nM
[37] = target: Ephrin type-A receptor 7 (Homo sapiens) (UniProt Q15375); conditions: Compound concentration 1000.0 nM
[38] = target: Phosphatidylinositol 4,5-bisphosphate 3-kinase catalytic subunit alpha isoform (Homo sapiens) (UniProt P42336); conditions: Compound concentration 1000.0 nM
[39] = target: Phosphatidylinositol 5-phosphate 4-kinase type-2 beta (Homo sapiens) (UniProt P78356); conditions: Compound concentration 1000.0 nM
[40] = system: Proto-oncogene tyrosine-protein kinase receptor Ret (Homo sapiens), P07949 [V804L]; conditions: Compound concentration 1000.0 nM
[41] = system: Proto-oncogene tyrosine-protein kinase receptor Ret (Homo sapiens), P07949 [M918T]; conditions: Compound concentration 1000.0 nM
[42] = target: Histamine H1 receptor (Homo sapiens) (UniProt P35367); conditions: Compound concentration 10.0 uM
[43] = target: Delta-type opioid receptor (Homo sapiens) (UniProt P41143); conditions: Compound concentration 10.0 uM
[44] = target: Vascular endothelial growth factor receptor 2 (Homo sapiens) (UniProt P35968); conditions: Compound concentration 1000.0 nM
[45] = target: Casein kinase II subunit alpha (Homo sapiens) (UniProt P68400); conditions: Compound concentration 1000.0 nM

Sequence of MAP kinase-activated protein kinase 5 (Homo sapiens) (Q8IW41 whole entry): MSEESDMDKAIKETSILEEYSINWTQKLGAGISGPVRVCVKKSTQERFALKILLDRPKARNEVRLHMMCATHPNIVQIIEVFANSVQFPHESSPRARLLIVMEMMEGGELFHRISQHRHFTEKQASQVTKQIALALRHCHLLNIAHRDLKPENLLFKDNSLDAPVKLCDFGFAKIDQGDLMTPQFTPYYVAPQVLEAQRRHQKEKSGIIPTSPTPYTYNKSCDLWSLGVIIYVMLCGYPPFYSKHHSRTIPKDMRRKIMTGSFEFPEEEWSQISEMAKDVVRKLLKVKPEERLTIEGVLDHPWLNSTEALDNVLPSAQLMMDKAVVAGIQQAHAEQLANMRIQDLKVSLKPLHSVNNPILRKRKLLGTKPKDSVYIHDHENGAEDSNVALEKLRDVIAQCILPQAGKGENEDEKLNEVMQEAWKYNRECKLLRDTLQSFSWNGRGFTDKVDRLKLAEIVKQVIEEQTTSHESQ
Sequence of RAC-beta serine/threonine-protein kinase (Homo sapiens) (P31751 whole entry): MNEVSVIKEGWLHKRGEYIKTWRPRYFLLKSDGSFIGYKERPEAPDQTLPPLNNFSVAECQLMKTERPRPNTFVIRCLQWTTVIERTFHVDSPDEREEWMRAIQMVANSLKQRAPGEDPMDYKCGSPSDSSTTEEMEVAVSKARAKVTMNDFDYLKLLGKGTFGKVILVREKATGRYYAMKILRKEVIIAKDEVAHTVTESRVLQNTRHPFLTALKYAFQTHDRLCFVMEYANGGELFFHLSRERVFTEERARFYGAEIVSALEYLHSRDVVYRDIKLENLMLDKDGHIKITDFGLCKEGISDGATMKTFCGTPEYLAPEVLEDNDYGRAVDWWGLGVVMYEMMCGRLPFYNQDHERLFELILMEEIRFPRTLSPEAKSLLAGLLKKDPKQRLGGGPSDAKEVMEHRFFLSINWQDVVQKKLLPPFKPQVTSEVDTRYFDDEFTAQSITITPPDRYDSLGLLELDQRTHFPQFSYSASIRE
Sequence of Serine/threonine-protein kinase/endoribonuclease IRE1 (Homo sapiens) (O75460 19-977 limits assumed): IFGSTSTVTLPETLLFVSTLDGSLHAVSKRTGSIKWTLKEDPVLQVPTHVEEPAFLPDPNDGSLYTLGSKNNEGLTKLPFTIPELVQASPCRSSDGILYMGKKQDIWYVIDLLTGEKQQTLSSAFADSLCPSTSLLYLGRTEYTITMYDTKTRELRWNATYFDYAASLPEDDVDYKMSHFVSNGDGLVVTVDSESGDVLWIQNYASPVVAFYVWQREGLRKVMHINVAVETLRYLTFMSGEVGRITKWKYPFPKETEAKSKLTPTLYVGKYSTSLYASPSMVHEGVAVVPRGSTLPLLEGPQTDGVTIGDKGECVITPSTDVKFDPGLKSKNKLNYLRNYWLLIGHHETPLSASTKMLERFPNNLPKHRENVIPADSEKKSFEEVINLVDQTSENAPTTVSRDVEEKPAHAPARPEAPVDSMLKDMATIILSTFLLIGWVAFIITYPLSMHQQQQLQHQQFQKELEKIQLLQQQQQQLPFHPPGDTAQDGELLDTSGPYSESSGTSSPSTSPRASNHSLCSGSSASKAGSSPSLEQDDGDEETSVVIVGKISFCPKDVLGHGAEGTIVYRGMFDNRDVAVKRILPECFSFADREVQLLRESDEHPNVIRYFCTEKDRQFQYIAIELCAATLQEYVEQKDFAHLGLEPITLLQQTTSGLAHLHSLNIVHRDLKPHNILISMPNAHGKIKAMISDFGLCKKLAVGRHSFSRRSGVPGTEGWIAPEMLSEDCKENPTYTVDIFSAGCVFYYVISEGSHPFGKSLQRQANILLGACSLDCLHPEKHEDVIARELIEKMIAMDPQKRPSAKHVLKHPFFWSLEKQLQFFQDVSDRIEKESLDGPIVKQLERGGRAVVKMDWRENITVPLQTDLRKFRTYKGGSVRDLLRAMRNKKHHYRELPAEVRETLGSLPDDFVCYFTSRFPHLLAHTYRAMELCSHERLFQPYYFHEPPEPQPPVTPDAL
Sequence of Activin receptor type-2B (Homo sapiens) (Q13705 whole entry): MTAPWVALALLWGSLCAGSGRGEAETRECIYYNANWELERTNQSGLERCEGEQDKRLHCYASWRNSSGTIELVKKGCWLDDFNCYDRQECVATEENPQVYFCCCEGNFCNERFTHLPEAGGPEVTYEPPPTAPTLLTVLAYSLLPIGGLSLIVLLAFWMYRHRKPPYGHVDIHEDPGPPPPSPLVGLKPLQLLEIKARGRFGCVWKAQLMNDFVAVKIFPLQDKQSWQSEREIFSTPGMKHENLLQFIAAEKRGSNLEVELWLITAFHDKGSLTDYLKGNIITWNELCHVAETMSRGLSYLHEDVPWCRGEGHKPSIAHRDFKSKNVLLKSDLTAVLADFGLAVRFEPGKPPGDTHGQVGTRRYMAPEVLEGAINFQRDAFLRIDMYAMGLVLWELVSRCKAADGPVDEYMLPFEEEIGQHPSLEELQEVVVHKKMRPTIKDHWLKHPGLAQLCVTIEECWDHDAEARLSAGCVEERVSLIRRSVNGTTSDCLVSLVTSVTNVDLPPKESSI
Sequence of Proto-oncogene tyrosine-protein kinase receptor Ret (Homo sapiens) (P07949 whole entry): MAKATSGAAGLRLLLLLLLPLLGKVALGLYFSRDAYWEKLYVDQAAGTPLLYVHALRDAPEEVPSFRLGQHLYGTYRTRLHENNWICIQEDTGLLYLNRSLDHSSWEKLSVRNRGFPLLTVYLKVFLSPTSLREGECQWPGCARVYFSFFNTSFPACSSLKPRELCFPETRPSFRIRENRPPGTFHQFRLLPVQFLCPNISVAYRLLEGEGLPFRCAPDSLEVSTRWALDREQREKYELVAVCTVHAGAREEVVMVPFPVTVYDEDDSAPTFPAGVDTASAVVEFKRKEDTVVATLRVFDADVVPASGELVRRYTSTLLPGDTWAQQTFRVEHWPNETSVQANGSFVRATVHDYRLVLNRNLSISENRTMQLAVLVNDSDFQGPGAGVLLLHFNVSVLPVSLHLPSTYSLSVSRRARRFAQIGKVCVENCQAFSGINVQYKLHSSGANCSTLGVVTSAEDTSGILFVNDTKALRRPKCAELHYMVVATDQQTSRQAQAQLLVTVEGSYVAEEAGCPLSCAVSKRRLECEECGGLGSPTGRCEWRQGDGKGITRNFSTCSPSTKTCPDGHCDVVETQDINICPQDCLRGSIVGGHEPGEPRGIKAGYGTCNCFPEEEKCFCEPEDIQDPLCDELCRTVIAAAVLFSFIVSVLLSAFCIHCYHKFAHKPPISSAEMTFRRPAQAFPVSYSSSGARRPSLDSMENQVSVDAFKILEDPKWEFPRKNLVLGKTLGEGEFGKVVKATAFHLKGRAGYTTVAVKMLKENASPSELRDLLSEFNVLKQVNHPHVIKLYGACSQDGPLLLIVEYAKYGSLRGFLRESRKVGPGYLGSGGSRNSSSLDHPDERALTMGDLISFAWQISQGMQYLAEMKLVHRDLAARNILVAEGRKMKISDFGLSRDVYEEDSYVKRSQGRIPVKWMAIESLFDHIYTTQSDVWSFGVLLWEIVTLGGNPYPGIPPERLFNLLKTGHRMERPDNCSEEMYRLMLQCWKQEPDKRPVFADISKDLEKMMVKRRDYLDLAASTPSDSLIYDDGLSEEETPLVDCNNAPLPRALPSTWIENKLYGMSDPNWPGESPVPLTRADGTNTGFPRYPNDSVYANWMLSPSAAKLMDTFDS
Sequence of Muscarinic acetylcholine receptor M1 (Homo sapiens) (P11229 whole entry): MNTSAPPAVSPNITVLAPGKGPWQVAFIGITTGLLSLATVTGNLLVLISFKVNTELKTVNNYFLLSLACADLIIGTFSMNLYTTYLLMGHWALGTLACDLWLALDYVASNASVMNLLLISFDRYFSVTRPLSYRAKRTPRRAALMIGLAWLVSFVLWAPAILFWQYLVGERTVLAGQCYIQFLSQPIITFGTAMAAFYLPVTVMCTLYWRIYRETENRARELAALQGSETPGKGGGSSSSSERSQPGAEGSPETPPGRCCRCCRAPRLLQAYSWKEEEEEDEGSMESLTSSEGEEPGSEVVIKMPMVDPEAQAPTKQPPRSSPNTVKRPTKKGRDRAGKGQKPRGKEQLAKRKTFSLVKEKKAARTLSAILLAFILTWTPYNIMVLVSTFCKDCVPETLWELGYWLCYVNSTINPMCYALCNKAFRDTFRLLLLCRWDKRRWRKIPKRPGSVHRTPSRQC
Sequence of Mu-type opioid receptor (Homo sapiens) (P35372 whole entry): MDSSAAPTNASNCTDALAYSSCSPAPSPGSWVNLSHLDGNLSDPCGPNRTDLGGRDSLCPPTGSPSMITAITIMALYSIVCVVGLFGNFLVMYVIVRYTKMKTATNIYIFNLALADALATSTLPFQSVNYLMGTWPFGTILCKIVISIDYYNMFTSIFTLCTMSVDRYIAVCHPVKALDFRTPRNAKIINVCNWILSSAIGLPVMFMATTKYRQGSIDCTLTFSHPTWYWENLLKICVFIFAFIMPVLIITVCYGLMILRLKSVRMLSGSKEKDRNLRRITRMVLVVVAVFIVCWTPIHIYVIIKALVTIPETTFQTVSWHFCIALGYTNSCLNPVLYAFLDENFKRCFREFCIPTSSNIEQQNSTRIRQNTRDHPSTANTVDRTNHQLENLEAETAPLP
Sequence of Serine/threonine-protein kinase PAK 2 (Homo sapiens) (Q13177 whole entry): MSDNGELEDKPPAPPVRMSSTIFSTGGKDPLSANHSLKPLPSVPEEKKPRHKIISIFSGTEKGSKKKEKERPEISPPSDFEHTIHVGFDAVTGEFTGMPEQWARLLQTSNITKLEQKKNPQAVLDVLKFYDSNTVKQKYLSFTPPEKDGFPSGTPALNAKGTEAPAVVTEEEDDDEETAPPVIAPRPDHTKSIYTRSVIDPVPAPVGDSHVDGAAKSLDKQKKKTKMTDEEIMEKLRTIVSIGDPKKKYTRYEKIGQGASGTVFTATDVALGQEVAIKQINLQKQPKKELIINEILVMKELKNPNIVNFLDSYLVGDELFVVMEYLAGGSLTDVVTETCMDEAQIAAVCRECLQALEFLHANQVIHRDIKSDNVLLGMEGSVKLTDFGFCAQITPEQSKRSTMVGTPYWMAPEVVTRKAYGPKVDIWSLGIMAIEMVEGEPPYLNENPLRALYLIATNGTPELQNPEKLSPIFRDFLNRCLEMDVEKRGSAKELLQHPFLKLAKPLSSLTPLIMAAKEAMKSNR

CC(=O)C1=C(C)N(c2cccc(C(F)(F)F)c2)C(=O)N[C@@H]1c1ccc(C#N)nc1 [BAY-678]
inactive: residual activity [1] 100% | residual activity [2] 100% | residual activity [3] 87.1% | residual activity [4] 100% | residual activity [5] 67.2% | residual activity [6] 81.1% | residual activity [7] 88.3% | residual activity [8] 100% | residual activity [9] 100% | residual activity [10] 87.5% | residual activity [11] 98.2% | residual activity [12] 95.9% | inhibition [13] -4.65% | inhibition [14] -0.551% | residual activity [15] 90% | residual activity [16] 87.5% | residual activity [17] 100% | residual activity [18] 100% | residual activity [19] 100% | residual activity [20] 67.8% | residual activity [21] 100% | residual activity [22] 100% | residual activity [23] 97.9% | residual activity [24] 100% | residual activity [25] 83.8% | residual activity [26] 100% | residual activity [27] 100% | residual activity [28] 100% | inhibition [29] -5.41% | residual activity [30] 92.4% | residual activity [31] 72.8% | residual activity [32] 99.6% | residual activity [33] 94.6% | residual activity [34] 100% | residual activity [35] 83.5% | residual activity [36] 98.2% | residual activity [37] 100% | residual activity [38] 100% | residual activity [39] 52.8% | residual activity [40] 97.4% | residual activity [41] 100% | inhibition [42] 34.1% | inhibition [43] -6.02% | residual activity [44] 84% | residual activity [45] 94.8%
